In patent publication US6127420A, “L-N^5 -(1-imino-3-alkenyl) ornithine and related compounds and use thereof” (priority 1998, dated 2000):
Read-outs that look alike come from different tables or passages of the source.

What was measured:
iNOS [1] = target: T1, iNOS (Mus musculus, UniProt P29477); assay: biochemical
Experimental: (§1) For determination of Ki of a compound, activity of NOS is determined by monitoring the conversion of L-[^14 C]arginine to L-[^14 C]citrulline. […] Reaction mixtures for iNOS are similar, but CaCl2 and calmodulin are omitted. Reaction is initiated by the addition of the enzyme, and the solutions are maintained at 25° C. for 4 min. Reaction mixtures are quenched by the addition of 200 μl of stop buffer containing 100 mM Na^+ Hepes buffer, pH 5.5, and 5 mM ethylene glycol bis (β-aminoethylether)-N,N,N',N"-tetraacetic acid (EGTA). The resulting samples are heated in a boiling water bath for 1 minute and chilled and centrifuged. A portion (225 μl) of the supernatant is applied to small Dowex 50 columns (Na^+ form, 1 ml resin), and the product L-[^14 C]citrulline is eluted with 2 ml of water and quantified by liquid scintillation counting.

eNOS [2] = target: T2, eNOS (Bos taurus, UniProt P29473); assay: biochemical
Experimental: as §1

nNOS [3] = target: T3, nNOS (Rattus norvegicus, UniProt P29476); assay: Time-dependent inactivation of nNOS (residual activity, oxyhemoglobin oxidation); format: biochemical; parameters: made in house; host or cells: stably transfected kidney 293 cells; settings: 25° C.; for inactivation of nNOS relative to 2.0 μM L-NMA (FIG. 2): 0.5 μM L-VNIO vs 2.0 μM L-NMA; for inactivation of nNOS (in words, FIG. 2): under the conditions examined
T3 sequence (P29476 whole entry): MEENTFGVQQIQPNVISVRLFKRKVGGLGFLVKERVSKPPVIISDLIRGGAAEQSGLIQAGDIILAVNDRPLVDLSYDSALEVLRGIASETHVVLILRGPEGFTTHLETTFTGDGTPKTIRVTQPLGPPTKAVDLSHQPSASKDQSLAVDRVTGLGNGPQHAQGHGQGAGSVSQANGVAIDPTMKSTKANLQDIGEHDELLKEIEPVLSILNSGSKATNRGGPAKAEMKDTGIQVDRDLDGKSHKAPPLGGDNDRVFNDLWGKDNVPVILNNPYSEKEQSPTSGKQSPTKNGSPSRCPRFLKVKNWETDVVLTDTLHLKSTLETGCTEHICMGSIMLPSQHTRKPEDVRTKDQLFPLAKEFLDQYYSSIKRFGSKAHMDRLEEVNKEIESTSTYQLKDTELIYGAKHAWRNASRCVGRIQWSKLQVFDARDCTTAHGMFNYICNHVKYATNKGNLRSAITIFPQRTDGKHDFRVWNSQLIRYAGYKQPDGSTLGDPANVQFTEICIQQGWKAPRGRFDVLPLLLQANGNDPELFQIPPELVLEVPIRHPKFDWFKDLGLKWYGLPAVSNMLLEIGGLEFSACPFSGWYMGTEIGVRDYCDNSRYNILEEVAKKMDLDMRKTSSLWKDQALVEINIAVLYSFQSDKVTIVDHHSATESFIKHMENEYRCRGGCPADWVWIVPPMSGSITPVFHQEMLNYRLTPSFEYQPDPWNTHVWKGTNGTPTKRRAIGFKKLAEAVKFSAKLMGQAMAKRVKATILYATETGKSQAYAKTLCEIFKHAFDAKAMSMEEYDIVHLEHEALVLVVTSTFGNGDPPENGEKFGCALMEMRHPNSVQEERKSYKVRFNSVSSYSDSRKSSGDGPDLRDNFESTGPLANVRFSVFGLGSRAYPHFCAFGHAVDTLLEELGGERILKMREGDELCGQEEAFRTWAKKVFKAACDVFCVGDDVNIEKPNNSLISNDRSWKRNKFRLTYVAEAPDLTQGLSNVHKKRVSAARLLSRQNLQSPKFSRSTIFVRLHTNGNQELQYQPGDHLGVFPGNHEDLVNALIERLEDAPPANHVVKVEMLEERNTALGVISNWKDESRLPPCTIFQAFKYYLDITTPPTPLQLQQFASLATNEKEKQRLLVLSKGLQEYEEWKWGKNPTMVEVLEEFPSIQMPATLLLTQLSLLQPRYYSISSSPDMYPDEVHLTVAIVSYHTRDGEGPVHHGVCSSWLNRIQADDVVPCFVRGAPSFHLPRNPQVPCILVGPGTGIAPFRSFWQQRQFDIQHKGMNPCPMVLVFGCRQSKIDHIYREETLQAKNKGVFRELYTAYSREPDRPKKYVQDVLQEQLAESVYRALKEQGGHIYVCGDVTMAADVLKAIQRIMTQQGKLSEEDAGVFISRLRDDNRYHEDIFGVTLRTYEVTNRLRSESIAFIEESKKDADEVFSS
Experimental: Nitric oxide-mediated oxidation of oxyhemoglobin was monitored at 401 nm (ε=0.038 μM^-1); the reference cuvette contained a similar mixture without enzyme. Rates were measured and used to calculate the residual activity. The results are shown in FIG. 1 where for ln A/Ao in the legend for the vertical axis, A is the residual activity of NOS at the time indicated and Ao is the activity of NOS at time zero (i.e., initial activity).
Determinations were carried out as described in Example XI. The results are shown in FIG. 2 where in (A/Ao) means the same as in Example XI.
Testing was carried out to compare inactivation by L-VNIO of the nNOS, eNOS and iNOS isoforms. Determinations were carried out as set forth in Example XI except that the reaction mixtures for iNOS omitted CaCl2 and calmodulin.

eNOS [4] = target: T2, eNOS; settings: for eNOS Ki/Km: Ki divided by Km for L-arginine
Experimental: as §1

iNOS [5] = target: T1, iNOS; assay: Time-dependent inactivation of iNOS (residual activity, oxyhemoglobin oxidation; CaCl2 and calmodulin omitted); format: biochemical; settings: up to 100 μM L-VNIO, 25° C.
[6] = Migraine headache treatment of a patient with L-VNIO tablets; format: in vivo, human
Experimental: A person with a history of migraine headaches is provided with tablets containing 500 mg of L-VNIO. They are instructed to take one tablet at the first sign of migraine headache development and to take a second table 60 minutes later if the headache continues to develop. When a right-sided migraine headache begins, they take one tablet as instructed, and headache pain begins to decrease within 15 minutes and is absent within 45 minutes. […] The women therefore takes a second table as instructed and headache pain is absent within 30 minutes of taking the second tablet.

eNOS [7] = target: T2, eNOS; assay: Time-dependent inactivation of eNOS (residual activity, oxyhemoglobin oxidation); format: biochemical, bovine; settings: 25° C.
nNOS [8] = target: T3, nNOS; settings: for nNOS Ki/Km: Ki divided by Km for L-arginine; for selectivity for nNOS (in words): vs eNOS (and iNOS for L-VNIO), on a Ki/Km basis
Experimental: as §1

[9] = test system: female Sprague-Dawley CFY rats; assay: Stroke volume after carotid artery ligation in rats; format: in vivo, rat; settings: 25 mg/kg i.v. bolus 30 minutes after occlusion; histology 24 hours after artery occlusion
Experimental: Both carotid arteries are ligated in two groups of female Sprague-Dawley CFY rats. After 10 minutes, ligations are released and flow is again allowed.
In the case of one group, L-VNIO (25 mg/kg) is administered by bolus injection through a venous catheter 30 minutes after occlusion of the arteries. In the case of the other group, no therapeutic agent is administered.

iNOS [10] = target: T1, iNOS; settings: for iNOS Ki/Km: Ki divided by Km for L-arginine
Experimental: as §1

nNOS [11] = target: T3, nNOS; assay: biochemical
Experimental: as §1

[12] = first migraine, one 500 mg tablet

T1 sequence (P29477 whole entry): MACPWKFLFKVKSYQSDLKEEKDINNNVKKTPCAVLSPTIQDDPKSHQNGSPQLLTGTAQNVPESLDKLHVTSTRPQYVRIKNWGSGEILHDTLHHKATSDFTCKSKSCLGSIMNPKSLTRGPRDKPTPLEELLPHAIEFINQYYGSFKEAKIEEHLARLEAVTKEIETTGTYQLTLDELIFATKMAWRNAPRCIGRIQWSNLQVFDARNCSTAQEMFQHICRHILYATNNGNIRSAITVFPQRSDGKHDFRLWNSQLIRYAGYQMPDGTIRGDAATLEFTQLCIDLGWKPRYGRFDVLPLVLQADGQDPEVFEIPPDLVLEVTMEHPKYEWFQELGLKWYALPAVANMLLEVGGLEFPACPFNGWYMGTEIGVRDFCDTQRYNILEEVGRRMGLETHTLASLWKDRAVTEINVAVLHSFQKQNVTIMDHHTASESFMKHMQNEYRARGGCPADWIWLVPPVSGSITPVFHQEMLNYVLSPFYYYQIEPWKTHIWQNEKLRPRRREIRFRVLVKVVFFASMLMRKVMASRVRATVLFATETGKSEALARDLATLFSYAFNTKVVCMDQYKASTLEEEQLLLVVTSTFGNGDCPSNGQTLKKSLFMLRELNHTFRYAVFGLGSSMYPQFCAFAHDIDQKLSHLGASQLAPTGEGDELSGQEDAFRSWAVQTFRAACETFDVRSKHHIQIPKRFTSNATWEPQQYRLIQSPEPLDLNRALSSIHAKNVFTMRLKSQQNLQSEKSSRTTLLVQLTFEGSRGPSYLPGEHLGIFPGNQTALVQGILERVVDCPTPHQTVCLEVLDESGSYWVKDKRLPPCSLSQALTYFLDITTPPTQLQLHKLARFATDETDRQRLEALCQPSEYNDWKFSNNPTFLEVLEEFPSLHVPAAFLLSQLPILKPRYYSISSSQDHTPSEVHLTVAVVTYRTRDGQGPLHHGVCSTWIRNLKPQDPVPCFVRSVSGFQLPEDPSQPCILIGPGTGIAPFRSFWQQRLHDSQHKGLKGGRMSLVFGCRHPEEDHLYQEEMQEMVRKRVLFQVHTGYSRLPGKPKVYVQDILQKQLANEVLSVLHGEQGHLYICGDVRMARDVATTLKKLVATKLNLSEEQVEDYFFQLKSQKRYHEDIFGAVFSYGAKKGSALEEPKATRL
T2 sequence (P29473 2-1205): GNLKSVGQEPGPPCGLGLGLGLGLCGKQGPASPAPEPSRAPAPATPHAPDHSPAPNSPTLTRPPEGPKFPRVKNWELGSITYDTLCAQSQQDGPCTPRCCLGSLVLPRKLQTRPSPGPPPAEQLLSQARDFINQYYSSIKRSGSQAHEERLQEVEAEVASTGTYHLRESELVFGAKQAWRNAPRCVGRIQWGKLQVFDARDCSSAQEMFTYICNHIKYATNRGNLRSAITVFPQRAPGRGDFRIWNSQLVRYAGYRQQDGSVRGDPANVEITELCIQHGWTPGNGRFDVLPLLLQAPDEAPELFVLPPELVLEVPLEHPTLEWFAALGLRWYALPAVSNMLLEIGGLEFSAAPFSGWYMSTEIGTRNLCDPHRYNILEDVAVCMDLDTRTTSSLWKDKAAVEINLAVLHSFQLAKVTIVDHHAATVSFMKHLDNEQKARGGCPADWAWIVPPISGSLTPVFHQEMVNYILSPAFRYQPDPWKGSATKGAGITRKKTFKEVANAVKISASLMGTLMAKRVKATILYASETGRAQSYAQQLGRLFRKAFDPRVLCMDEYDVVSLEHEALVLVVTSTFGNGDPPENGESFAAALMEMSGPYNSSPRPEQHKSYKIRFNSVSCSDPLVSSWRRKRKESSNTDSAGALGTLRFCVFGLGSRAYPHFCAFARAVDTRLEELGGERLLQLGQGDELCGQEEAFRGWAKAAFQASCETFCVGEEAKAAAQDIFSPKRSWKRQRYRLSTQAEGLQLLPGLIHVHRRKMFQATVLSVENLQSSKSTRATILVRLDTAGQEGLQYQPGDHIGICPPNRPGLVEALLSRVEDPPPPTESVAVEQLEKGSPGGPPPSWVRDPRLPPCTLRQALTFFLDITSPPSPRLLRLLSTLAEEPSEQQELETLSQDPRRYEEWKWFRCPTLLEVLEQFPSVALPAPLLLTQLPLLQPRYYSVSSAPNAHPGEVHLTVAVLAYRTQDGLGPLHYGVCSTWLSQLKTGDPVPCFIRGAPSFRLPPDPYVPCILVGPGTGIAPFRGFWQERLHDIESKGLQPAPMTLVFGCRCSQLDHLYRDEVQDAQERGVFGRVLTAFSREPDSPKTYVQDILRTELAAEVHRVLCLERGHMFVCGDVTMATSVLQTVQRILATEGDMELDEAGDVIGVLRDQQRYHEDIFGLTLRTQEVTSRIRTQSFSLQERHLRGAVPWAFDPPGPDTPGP

| SMILES | Ki (iNOS [1]) | Ki (eNOS [2]) | inactivation of nNOS relative to 2.0 μM L-NMA (FIG. 2) (nNOS [3]) | eNOS Ki/Km (eNOS [4]) | nNOS Ki/Km (nNOS [8]) | selectivity for nNOS (in words) (nNOS [8]) | iNOS Ki/Km (iNOS [10]) | inactivation of nNOS (in words, FIG. 2) (nNOS [3]) | other results |
| --- | --- | --- | --- | --- | --- | --- | --- | --- | --- |
| CC(=N)NCCC[C@H](N)C(=O)O [L-NIO] | 3.9 µM | 3.9 µM | – | – | – | – | – | – | – |
| CNC(=N)NCCC[C@H](N)C(=O)O [L-NMA, N^ω -methyl-L-arginine, reference compound] | – | – | comparable | – | – | – | – | – | – |
| C=CCC(=N)NCCC[C@H](N)C(=O)O [L-VNIO, N^5-(1-imino-3-butenyl)-L-ornithine] | – | 12 µM | comparable with that seen with 2.0 μM L-NMA | 3.33 | 0.07 | selective inhibitor of nNOS | 4.80 | – | inhibition of eNOS (in words) (eNOS [4]; conclusion from Table I): poor inhibitor of eNOS; inactivation of iNOS (FIG. 3) (iNOS [5]): does not inactivate iNOS; time until headache pain begins to decrease [6, 12]: ≤ 15 min; time until headache pain is absent [6, 12]: ≤ 45 min; pain relief by the first tablet, following day ([6]; following day, first 500 mg tablet): pain is not fully alleviated by the first tablet; time until headache pain is absent after the second tablet ([6]; following day, second 500 mg tablet 60 minutes after first): ≤ 30 min; inactivation of eNOS (FIG. 3) (eNOS [7]; 10 μM L-VNIO): relatively weak inactivator of eNOS; rate of inactivation of eNOS compared with nNOS (FIG. 3) (eNOS [7]; 20-fold higher concentration of L-VNIO: 10 μM eNOS vs 0.5 μM nNOS): does not match that seen with nNOS; inactivation of nNOS relative to 10 μM L-NIO (FIG. 2) (nNOS [3]; 0.5 μM L-VNIO vs 10 μM L-NIO): greater than that seen with 10 μM L-NIO; inactivation of nNOS (FIG. 3) (nNOS [3]; 0.5 μM L-VNIO): strong inactivator of nNOS; inactivation of nNOS (FIG. 1) (nNOS [3]; L-VNIO 0.1-0.8 μM, D-VNIO 100 μM): caused a first-order inactivation of nNOS; inhibition of nNOS (in words) (nNOS [8]; conclusion from Table I): potent inhibitor of nNOS; Ki (nNOS [8]; read-out: nNOS Ki, rat nNOS, 25° C., pH 7.4, initial rate conditions, duplicates agreed within ±5%): 0.1 µM; stroke volume compared to group receiving no treatment [9]: significant reduction in stroke volume; inhibition of iNOS (in words) (iNOS [10]; conclusion from Table I): poor inhibitor of eNOS and INOS; Ki (iNOS [10]; read-out: iNOS Ki, mouse iNOS, 25° C., pH 7.4, initial rate conditions, duplicates agreed within ±5%): 60 µM |
| CCCC(=N)NCCC[C@H](N)C(=O)O [ethyl-L-NIO, reference compound] | 12 µM | 18 µM | – | 5.00 | 3.79 | do not show biologically significant selectivity for nNOS over eNOS | 0.96 | does not inactivate nNOS | selectivity for iNOS over nNOS and eNOS (iNOS [10]; on a Ki/Km basis): 3 to 5 fold; Ki (nNOS [11]): 5.3 µM |
| CCC(=N)NCCC[C@H](N)C(=O)O [methyl-L-NIO] | 9.5 µM | 10 µM | – | – | – | – | – | much weaker inactivator of nNOS | – |
